From ChEMBL document CHEMBL1136459, “New antibacterial tetrahydro-4(2H)-thiopyran and thiomorpholine S-oxide and S,S-dioxide phenyloxazolidinones” (Bioorg Med Chem Lett, 2003)
≈ marks a conversion by molar mass, not a printed value.

Key:
Enterococcus faecium = experiment: In vitro antibacterial activity against vancomycin-resistant Enterococcus faecium UC12712 (VRE).
Staphylococcus aureus [1] = experiment: In vitro antibacterial activity against Staphylococcus aureus strains UC12673, UC9213, ATCC 29213, and UC9271 (SA); range is 32-64; type: functional
[2] = tested on: Staphylococcus epidermidis; experiment: In vitro antibacterial activity against Staphylococcus epidermidis strains UC12084, 30031, and CDC-CNS90 (SE); range is 16-32; type: functional
Moraxella catarrhalis [3] = experiment: In vitro antibacterial activity against Moraxella catarrhalis strains 30607 and 30603 (MC).; type: functional
Streptococcus pneumoniae [4] = experiment: In vitro antibacterial activity against Streptococcus pneumoniae strains ATCC 6305 and 31573 (SPN); range is 8-16
Staphylococcus aureus [5] = experiment: In vitro antibacterial activity against linezolid-resistant Staphylococcus aureus ATCC 29213 (LRSA).; type: functional
Haemophilus influenzae [6] = experiment: In vitro antibacterial activity against Haemophilia influenzae strains ATCC 30063 and ATCC 31517; type: functional
Haemophilus influenzae [7] = experiment: In vitro antibacterial activity against Haemophilia influenzae strains 30063 and ATCC 31517 (HI); range is 16-64; type: functional
[8] = tested on: Staphylococcus epidermidis; experiment: In vitro antibacterial activity against Staphylococcus epidermidis strains UC12084, 30031, and CDC-CNS90 (SE); range is 2-4; type: functional
Staphylococcus aureus [9] = experiment: In vitro antibacterial activity against Staphylococcus aureus strains UC12673, UC9213, ATCC 29213, and UC9271 (SA); range is 4-16; type: functional
Moraxella catarrhalis [10] = experiment: In vitro antibacterial activity against Moraxella catarrhalis strains 30607 and 30603 (MC); range is 16-32; type: functional
[11] = tested on: Staphylococcus epidermidis; experiment: In vitro antibacterial activity against Staphylococcus epidermidis strains UC12084, 30031, and CDC-CNS90 (SE); range is 32-64; type: functional
Staphylococcus aureus [12] = experiment: In vitro antibacterial activity against Staphylococcus aureus strains UC12673, UC9213, ATCC 29213, and UC9271 (SA); type: functional
Staphylococcus aureus [13] = experiment: In vitro antibacterial activity against Staphylococcus aureus strains UC12673, UC9213, ATCC 29213, and UC9271 (SA); range is 8-32; type: functional
[14] = tested on: Staphylococcus epidermidis; experiment: In vitro antibacterial activity against Staphylococcus epidermidis strains UC12084, 30031, and CDC-CNS90 (SE); type: functional
Moraxella catarrhalis [15] = experiment: In vitro antibacterial activity against Moraxella catarrhalis strains 30607 and 30603 (MC); range is 32-64; type: functional
[16] = In vivo Oral bioavailability (F)was determined after peroral administration of compound (19.01+/-0.31 mg/kg) in male Sprague-Dawley rat; type: ADME, organism-based
Rattus norvegicus [17] = experiment: In vivo Volume distribution (Vss) was determined after peroral administration of compound (158.5+/-2 mg/kg) in male Sprague-Dawley rat; type: ADME, organism-based; details: po
Rattus norvegicus [18] = experiment: In vivo Tmax was determined after peroral administration of compound (76.4+/-2.6 mg/kg) in male Sprague-Dawley rat; type: ADME, organism-based; details: po
Rattus norvegicus [19] = experiment: In vivo Area under curve (AUC) was determined after intravenous administration of compound (9.13+/-0.85 mg/kg) in male Sprague-Dawley rat; type: ADME, organism-based
Rattus norvegicus [20] = experiment: In vivo t1/2 was determined after peroral administration of compound (19.01+/-0.31 mg/kg) in male Sprague-Dawley rat; type: ADME, organism-based; details: po
[21] = In vivo Volume distribution (Vss) was determined after intravenous administration of compound (9.13+/-0.85 mg/kg) in male Sprague-Dawley rat; type: ADME, organism-based; details: read-out: Vss
Rattus norvegicus [22] = experiment: In vivo t1/2 was determined after peroral administration of compound (76.4+/-2.6 mg/kg) in male Sprague-Dawley rat; type: ADME, organism-based; details: po
Rattus norvegicus [23] = experiment: In vivo Cmax was determined after peroral administration of compound (19.01+/-0.31 mg/kg) in male Sprague-Dawley rat; type: ADME, organism-based; parameters: route oral; details: po
Mus musculus = experiment: In vivo Efficacy of compound after peroral administration in mouse; type: functional; details: po
Rattus norvegicus [24] = experiment: In vivo Clearance (Cl) was determined after intravenous administration of compound (9.13+/-0.85 mg/kg) in male Sprague-Dawley rat; type: ADME, organism-based
Rattus norvegicus [25] = experiment: In vivo Area under curve (AUC) was determined after peroral administration of compound (19.01+/-0.31 mg/kg) in male Sprague-Dawley rat; type: ADME, organism-based; details: po
Staphylococcus aureus [26] = experiment: In vitro antibacterial activity against Staphylococcus aureus strains UC12673, UC9213, ATCC 29213, and UC9271 (SA); range is 2-4; type: functional
Rattus norvegicus [27] = experiment: In vivo Cmax was determined after peroral administration of compound (76.4+/-2.6 mg/kg) in male Sprague-Dawley rat; type: ADME, organism-based; parameters: route oral; details: po
[28] = In vivo Oral bioavailability (F)was determined after peroral administration of compound (158.5+/-2 mg/kg) in male Sprague-Dawley rat; type: ADME, organism-based
Rattus norvegicus [29] = experiment: In vivo t1/2 was determined after intravenous administration of compound (9.13+/-0.85 mg/kg) in male Sprague-Dawley rat; type: ADME, organism-based
Rattus norvegicus [30] = experiment: In vivo Area under curve (AUC) was determined after peroral administration of compound (76.4+/-2.6 mg/kg) in male Sprague-Dawley rat; type: ADME, organism-based; details: po
Moraxella catarrhalis [31] = experiment: In vitro antibacterial activity against Moraxella catarrhalis strains 30607 and 30603 (MC); range is 4-8; type: functional
[32] = In vivo Oral bioavailability (F)was determined after peroral administration of compound (76.4+/-2.6 mg/kg) in male Sprague-Dawley rat; type: ADME, organism-based
Haemophilus influenzae [33] = experiment: In vitro antibacterial activity against Haemophilia influenzae strains 30063 and ATCC 31517 (HI); range is 4-8; type: functional
Rattus norvegicus [34] = experiment: In vivo Tmax was determined after intravenous administration of compound (9.13+/-0.85 mg/kg) in male Sprague-Dawley rat; type: ADME, organism-based
Rattus norvegicus [35] = experiment: In vivo Cmax was determined after intravenous administration of compound (9.13+/-0.85 mg/kg) in male Sprague-Dawley rat; type: ADME, organism-based; parameters: route intravenous
Rattus norvegicus [36] = experiment: In vivo Volume distribution (Vss) was determined after peroral administration of compound (76.4+/-2.6 mg/kg) in male Sprague-Dawley rat; type: ADME, organism-based; details: po
Rattus norvegicus [37] = experiment: In vivo Area under curve (AUC) was determined after oral administration of compound (158.5+/-2 mg/kg) in male Sprague-Dawley rat
[38] = tested on: Staphylococcus epidermidis; experiment: In vitro antibacterial activity against Staphylococcus epidermidis strains UC12084, 30031, and CDC-CNS90 (SE); range is 1-24; type: functional
[39] = In vivo Cmax was determined after peroral administration of compound (158.5+/-2 mg/kg) in male Sprague-Dawley rat; type: ADME, organism-based; parameters: route oral; details: po
[40] = In vivo Tmax was determined after peroral administration of compound (158.5+/-2 mg/kg) in male Sprague-Dawley rat; type: ADME, organism-based; details: po
Rattus norvegicus [41] = experiment: In vivo Tmax was determined after peroral administration of compound (19.01+/-0.31 mg/kg) in male Sprague-Dawley rat; type: ADME, organism-based; details: po
[42] = In vivo t1/2 was determined after peroral administration of compound (158.5+/-2 mg/kg) in male Sprague-Dawley rat; type: ADME, organism-based; details: po
Staphylococcus aureus [43] = experiment: In vitro antibacterial activity against Staphylococcus aureus strains UC12673, UC9213, ATCC 29213, and UC9271 (SA); range is 16-32; type: functional
Streptococcus pneumoniae [44] = experiment: In vitro antibacterial activity against Streptococcus pneumoniae strains ATCC 6305 and 31573 (SPN); range is 2-4

O=C(NC[C@H]1CN(c2ccc(N3CC[S+]([O-])CC3)c(F)c2)C(=O)O1)c1ccccc1
MIC (Enterococcus faecium): 32 µg/mL (≈ 74.2 µM)
MIC (Staphylococcus aureus [1]): 32 µg/mL (≈ 74.2 µM)
MIC [2]: 16 µg/mL (≈ 37.1 µM)
MIC (Moraxella catarrhalis [3]): > 64 µg/mL
MIC (Streptococcus pneumoniae [4]): 8 µg/mL (≈ 18.5 µM)
MIC (Staphylococcus aureus [5]): > 64 µg/mL
MIC (Haemophilus influenzae [6]): > 64 µg/mL

O=C(/C=C/c1cccnc1)NC[C@H]1CN(c2ccc(C3CCS(=O)(=O)CC3)c(F)c2)C(=O)O1
MIC (Enterococcus faecium): 8 µg/mL (≈ 16.9 µM)
MIC (Haemophilus influenzae [7]): 16 µg/mL (≈ 33.8 µM)
MIC [8]: 2 µg/mL (≈ 4.22 µM)
MIC (Staphylococcus aureus [9]): 4 µg/mL (≈ 8.45 µM)
MIC (Staphylococcus aureus [5]): 32 µg/mL (≈ 67.6 µM)
MIC (Moraxella catarrhalis [10]): 16 µg/mL (≈ 33.8 µM)

COc1ccc(OC)c(C(=O)NC[C@H]2CN(c3ccc(N4CC[S+]([O-])CC4)c(F)c3)C(=O)O2)c1
MIC (Enterococcus faecium): > 64 µg/mL
MIC [11]: 32 µg/mL (≈ 65.1 µM)
MIC (Staphylococcus aureus [12]): ≥ 64 µg/mL
MIC (Moraxella catarrhalis [3]): > 64 µg/mL
MIC (Staphylococcus aureus [5]): > 64 µg/mL
MIC (Haemophilus influenzae [6]): > 64 µg/mL

CC(=O)Oc1ccc(C(=O)NC[C@H]2CN(c3ccc(C4CC[S+]([O-])CC4)c(F)c3)C(=O)O2)cc1 (some centres not stated)
MIC (Enterococcus faecium): 0.06 µg/mL (≈ 0.123 µM)
MIC (Staphylococcus aureus [13]): 8 µg/mL (≈ 16.4 µM)
MIC [14]: 4 µg/mL (≈ 8.19 µM)
MIC (Moraxella catarrhalis [15]): 32 µg/mL (≈ 65.5 µM)
MIC (Staphylococcus aureus [5]): 64 µg/mL (≈ 131 µM)
MIC (Haemophilus influenzae [6]): 64 µg/mL (≈ 131 µM)

O=C(NC[C@H]1CN(c2ccc(C3CC[S+]([O-])CC3)c(F)c2)C(=O)O1)C(F)F (some centres not stated)
MIC (Enterococcus faecium): 2 µg/mL (≈ 4.95 µM)
bioavailability [16]: 77.1%
Vss (Rattus norvegicus [17]): 29.84 L/kg
T max (Rattus norvegicus [18]): 0.5 h
AUC (Rattus norvegicus [19]): 4090 ng·h/mL
T1/2 (Rattus norvegicus [20]): 3.6 h
Vd [21]: 1.78 L/kg
T1/2 (Rattus norvegicus [22]): 4.25 h
Cmax (Rattus norvegicus [23]): 3470 ng/mL
ED50 (Mus musculus): 6.52 mg/kg
Cl (Rattus norvegicus [24]): 37.25 mL/min/kg
AUC (Rattus norvegicus [25]): 6570 ng·h/mL
MIC (Staphylococcus aureus [26]): 2 µg/mL (≈ 4.95 µM)
Cmax (Rattus norvegicus [27]): 8600 ng/mL
bioavailability [28]: 85.7%
T1/2 (Rattus norvegicus [29]): 2.9 h
AUC (Rattus norvegicus [30]): 32400 ng·h/mL
MIC (Moraxella catarrhalis [31]): 4 µg/mL (≈ 9.89 µM)
bioavailability [32]: 95.1%
MIC (Haemophilus influenzae [33]): 4 µg/mL (≈ 9.89 µM)
T max (Rattus norvegicus [34]): 1.98 min
Cmax (Rattus norvegicus [35]): 15600 ng/mL
Vss (Rattus norvegicus [36]): 29.84 L/kg
AUC (Rattus norvegicus [37]): 60800 ng·h/mL
MIC [38]: 1 µg/mL (≈ 2.47 µM)
Cmax [39]: 9070 ng/mL
MIC (Staphylococcus aureus [5]): 16 µg/mL (≈ 39.6 µM)
Tmax [40]: 0.38 h
T max (Rattus norvegicus [41]): 0.38 h
half-life [42]: 7.93 h

O=C(CO)NC[C@H]1CN(c2ccc(C3CC[S+]([O-])CC3)c(F)c2)C(=O)O1 (some centres not stated)
MIC (Enterococcus faecium): 8 µg/mL (≈ 20.8 µM)
MIC [14]: 4 µg/mL (≈ 10.4 µM)
MIC (Staphylococcus aureus [43]): 16 µg/mL (≈ 41.6 µM)
MIC (Moraxella catarrhalis [3]): 8 µg/mL (≈ 20.8 µM)
MIC (Streptococcus pneumoniae [44]): 2 µg/mL (≈ 5.2 µM)
MIC (Staphylococcus aureus [5]): 64 µg/mL (≈ 166 µM)
MIC (Haemophilus influenzae [6]): 8 µg/mL (≈ 20.8 µM)
